Reference: US20260078130A1, “NAMPT MODULATORS, PREPARATIONS, AND USES THEREOF” (SIRONAX LTD., priority 2022, published 2026)
Read-outs that look alike come from different tables or passages of the source.

Key:
[1] = system: endogenous NAMPT in U2OS cells; experiment: Cellular NAD+ modulation assay (NAD/NADH-Glo, U2OS cells); type: cell-based; details: Homo sapiens; for maximal fold induction: read-out: Cellular Emax
In short: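 Endogenous NAMPT stimulation in U2OS cells treated with compound dilution series for 24 h at 37 °C. Cells lysed with DTAB base, acid-treated 15 min at 60 °C, neutralized, NAD+ read by NAD/NADH-Glo luminescence after 40 min at room temperature. EC50 and Emax (fold over DMSO) derived.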

[2] = target: T1, human enzyme NAMPT (full length) (Homo sapiens, UniProt P43490); experiment: NMN fluorescence biochemical assay (stimulation of NMN synthesis by NAMPT); details: for EC50: concentration giving half-maximal activation, read-out: Enzymatic EC50; for Enzymatic Emax: fold change of maximal activation compared to DMSO
T1 construct: human enzyme NAMPT (full length)
In short: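 Full-length human NAMPT (100 nM) was preincubated 15 min at 37 °C with compound in 50 mM Tris-HCl pH 7.5, 10 mM MgCl2, 2 mM DTT, then reacted 1 h at 37 °C with 50 μM NAM, 100 μM PRPP, 4 mM ATP (stated solution concentrations). NMN was derivatised with acetophenone/KOH then formic acid and read at Ex/Em 382/445 nm; EC50 and Emax (fold over DMSO) reported.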

[3] = 24 hours incubation, cellular NAD+
[4] = NMN fluorescence assay, purified human NAMPT 100 nM
[5] = 24 hours incubation with compound
[6] = NMN synthesis by purified human NAMPT (100 nM)

T1 sequence (P43490 whole entry): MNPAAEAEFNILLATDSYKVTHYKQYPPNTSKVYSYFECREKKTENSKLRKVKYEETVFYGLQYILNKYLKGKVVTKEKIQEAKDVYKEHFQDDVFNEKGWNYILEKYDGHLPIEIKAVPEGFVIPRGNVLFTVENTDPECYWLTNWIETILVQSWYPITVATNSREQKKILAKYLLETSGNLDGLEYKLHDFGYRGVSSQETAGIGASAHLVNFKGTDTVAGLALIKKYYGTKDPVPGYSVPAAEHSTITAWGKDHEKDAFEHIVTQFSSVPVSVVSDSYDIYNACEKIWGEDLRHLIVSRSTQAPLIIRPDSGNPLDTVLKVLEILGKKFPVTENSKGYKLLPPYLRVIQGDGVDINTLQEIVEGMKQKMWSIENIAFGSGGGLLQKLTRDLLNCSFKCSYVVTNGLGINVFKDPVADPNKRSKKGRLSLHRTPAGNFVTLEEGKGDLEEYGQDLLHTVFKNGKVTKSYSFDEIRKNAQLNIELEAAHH

EC50 [1, 3]	EC50 [2, 4]	Enzymatic Emax [2]	EC50 [1, 5]	EC50 [2, 6]	Compound	maximal fold induction [1, 3]	maximal fold induction [1, 5]
0.5 to 5 µM	≥ 5 µM	B (3≥B>2)			COc1ccc(CN2C(=O)c3cnccc3C2Cc2c(C)ccnc2C#N)cc1 (stereo not shown) [Compound 621, 3-((2-(4-methoxybenzyl)-3-oxo-2,3-dihydro-1H-pyrrolo[3,4-c]pyridin-1-yl)methyl)-4-methylpicolinonitrile]	> 1.5	
		A (A>3)	< 0.5 µM	< 0.5 µM	N#Cc1nccc(Cl)c1CC1c2ccccc2C(=O)N1Cc1ccc2[nH]c(=O)oc2c1 (stereo not shown) [Compound 212, 4-chloro-3-((3-oxo-2-((2-oxo-2,3-dihydrobenzo[d]oxazol-6-yl)methyl)isoindolin-1-yl)methyl)picolinonitrile]		> 1.5
< 0.5 µM	0.5 to 5 µM	B (3≥B>2)			Cc1ccnc(C#N)c1CC1c2cccc(F)c2C(=O)N1CC1CC2(CNC(=O)O2)C1 (stereo not shown) [Compound 428, 3-((4-fluoro-3-oxo-2-((6-oxo-5-oxa-7-azaspiro[3.4]octan-2-yl)methyl)isoindolin-1-yl)methyl)-4-methylpicolinonitrile]	> 1.5	
		B (3≥B>2)	< 0.5 µM	< 0.5 µM	N#Cc1cccc(Br)c1CC1c2ccccc2C(=O)N1Cc1ccc2[nH]c(=O)oc2c1 (stereo not shown) [Compound 200, 3-bromo-2-((3-oxo-2-((2-oxo-2,3-dihydrobenzo[d]oxazol-6-yl)methyl)isoindolin-1-yl)methyl)benzonitrile]		> 1.5
< 0.5 µM	< 0.5 µM	B (3≥B>2)			Cc1cncc(C#N)c1CC1c2ccccc2C(=O)N1CC1CC2(CNC(=O)O2)C1 (stereo not shown) [Compound 492, 5-methyl-4-((3-oxo-2-((6-oxo-5-oxa-7-azaspiro[3.4]octan-2-yl)methyl)isoindolin-1-yl)methyl)nicotinonitrile]	> 1.5	
< 0.5 µM	0.5 to 5 µM	A (A>3)			Cn1ncc(Cl)c1CC1c2cc(F)ccc2S(=O)(=O)N1CC1CC2(CNC(=O)O2)C1 (stereo not shown) [Compound 563, 2-((3-((4-chloro-1-methyl-1H-pyrazol-5-yl)methyl)-5-fluoro-1,1-dioxidobenzo[d]isothiazol-2(3H)-yl)methyl)-5-oxa-7-azaspiro[3.4]octan-6-one]	> 1.5	
< 0.5 µM	0.5 to 5 µM	B (3≥B>2)			Cc1ccnc(C#N)c1CC1c2ccc(F)cc2C(=O)N1CC1CC2(CNC(=O)O2)C1 (stereo not shown) [Compound 449, 3-((5-fluoro-3-oxo-2-((6-oxo-5-oxa-7-azaspiro[3.4]octan-2-yl)methyl)isoindolin-1-yl)methyl)-4-methylpicolinonitrile]	> 1.5	
		A (A>3)	< 0.5 µM	< 0.5 µM	O=C1NCC2(CC(CN3C(=O)c4ccccc4C3Cc3ncccc3Br)C2)O1 (stereo not shown) [Compound 270, 2-((1-((3-bromopyridin-2-yl)methyl)-3-oxoisoindolin-2-yl)methyl)-5-oxa-7-azaspiro[3.4]octan-6-one]		1.2 to 1.5
0.5 to 5 µM	0.5 to 5 µM	A (A>3)			Cc1ccnc(C(N)=O)c1CC1c2ccccc2C(=O)N1Cc1ccc2[nH]nnc2c1 (stereo not shown) [Compound 444, 3-((2-((1H-benzo[d][1,2,3]triazol-5-yl)methyl)-3-oxoisoindolin-1-yl)methyl)-4-methylpicolinamide]	> 1.5	

The next lines start with the molecule.

Compound	EC50 [1, 3]	EC50 [2, 4]	Enzymatic Emax [2]	EC50 [1, 5]	EC50 [2, 6]	maximal fold induction [1, 3]	maximal fold induction [1, 5]
CC1c2cc(NC3CC3)ccc2C(=O)N1Cc1ccc2[nH]c(=O)oc2c1 (single isomer, unassigned) [Compound 242]			A (A>3)	0.5 to 5 µM	≥ 5 µM		> 1.5
Cn1ncc(Cl)c1CC1c2ccccc2C(=O)N1Cc1cn[nH]c1 (stereo not shown) [Compound 629, 2-((1H-pyrazol-4-yl)methyl)-3-((4-chloro-1-methyl-1H-pyrazol-5-yl)methyl)isoindolin-1-one]	< 0.5 µM	< 0.5 µM	B (3≥B>2)			1.2 to 1.5	
Cn1ncc(Cl)c1CC1c2cc(F)ccc2C(=O)N1Cc1ccc2[nH]nnc2c1 (stereo not shown) [Compound 344, 2-((1H-benzo[d][1,2,3]triazol-5-yl)methyl)-3-((4-chloro-1-methyl-1H-pyrazol-5-yl)methyl)-5-fluoroisoindolin-1-one]	< 0.5 µM	0.5 to 5 µM	A (A>3)			> 1.5	
O=C1c2ccccc2C(Cc2ccccc2F)N1Cc1ccc2[nH]c(=O)oc2c1 (stereo not shown) [Compound 146, 6-((1-(2-fluorobenzyl)-3-oxoisoindolin-2-yl)methyl)benzo[d]oxazol-2(3H)-one]			A (A>3)	< 0.5 µM	< 0.5 µM		> 1.5
O=c1[nH]c2ccc(CN3Cc4ccccc4S3(=O)=O)cc2o1 [Compound 9, 6-((1,1-dioxidobenzo[d]isothiazol-2(3H)-yl)methyl)benzo[d]oxazol-2(3H)-one]			B (3≥B>2)	0.5 to 5 µM	0.5 to 5 µM		> 1.5
Cn1ncc(Cl)c1CC1c2cc(C(C)(C)O)ccc2C(=O)N1Cc1ccc2[nH]nnc2c1 (stereo not shown) [Compound 382, 2-((1H-benzo[d][1,2,3]triazol-5-yl)methyl)-3-((4-chloro-1-methyl-1H-pyrazol-5-yl)methyl)-5-(2-hydroxypropan-2-yl)isoindolin-1-one]	0.5 to 5 µM	0.5 to 5 µM	B (3≥B>2)			> 1.5	
O=C1c2ccccc2CN1Cc1ccc(O)cc1 [Compound 12, 2-(4-hydroxybenzyl)isoindolin-1-one]			B (3≥B>2)	5 to 50 µM	≥ 5 µM		1.2 to 1.5
COc1cc(CN2C(=O)c3ccccc3C2Cc2c(Cl)cnn2C)on1 (stereo not shown) [Compound 593, 3-((4-chloro-1-methyl-1H-pyrazol-5-yl)methyl)-2-((3-methoxyisoxazol-5-yl)methyl)isoindolin-1-one]	0.5 to 5 µM	≥ 5 µM	B (3≥B>2)			1.2 to 1.5	
Cn1ncc(Cl)c1CC1c2ccccc2C(=O)N1Cc1c[nH]c(=S)s1 (stereo not shown) [Compound 631, 3-((4-chloro-1-methyl-1H-pyrazol-5-yl)methyl)-2-((2-thioxo-2,3-dihydrothiazol-5-yl)methyl)isoindolin-1-one]	0.5 to 5 µM	≥ 5 µM	A (A>3)			> 1.5	
O=C1c2ccc(Nc3ccccc3)cc2C(=O)N1Cc1ccc(O)cc1 [Compound 15, 2-(4-hydroxybenzyl)-5-(phenylamino)isoindoline-1,3-dione]			B (3≥B>2)	< 0.5 µM	0.5 to 5 µM		≤ 1.2
O=C1c2ccccc2C(Cc2ncccc2Br)N1Cc1cc2nn[nH]c2cc1F (stereo not shown) [Compound 271, 3-((3-bromopyridin-2-yl)methyl)-2-((6-fluoro-1H-benzo[d][1,2,3]triazol-5-yl)methyl) isoindolin-1-one]			A (A>3)	0.5 to 5 µM	0.5 to 5 µM		> 1.5
CC1c2cc(NC3CC4(COC4)C3)ccc2C(=O)N1Cc1ccc2[nH]c(=O)oc2c1 (stereo not shown) [Compound 149, 6-((5-((2-oxaspiro[3.3]heptan-6-yl)amino)-3-methyl-1-oxoisoindolin-2-yl)methyl)benzo[d]oxazol-2(3H)-one]			B (3≥B>2)	0.5 to 5 µM	0.5 to 5 µM		> 1.5
COc1ccc(CN2C(=O)c3ccccc3C2Cc2c(Cl)cnn2C)nc1F (stereo not shown) [Compound 543, 3-((4-chloro-1-methyl-1H-pyrazol-5-yl)methyl)-2-((6-fluoro-5-methoxypyridin-2-yl)methyl)isoindolin-1-one]	0.5 to 5 µM	0.5 to 5 µM	B (3≥B>2)			> 1.5	
Cn1ncc(Cl)c1CC1c2ccccc2C(=O)N1CC1CC1C(N)=O (stereo not shown) [Compound 582, 2-((1-((4-chloro-1-methyl-1H-pyrazol-5-yl)methyl)-3-oxoisoindolin-2-yl)methyl)cyclopropane-1-carboxamide]	5 to 50 µM	≥ 5 µM	C (2≥C)			1.2 to 1.5	
C#Cc1cccnc1CC1c2ccccc2C(=O)N1Cc1ccc2[nH]c(=O)oc2c1 (stereo not shown) [Compound 215, 6-((1-((3-ethynylpyridin-2-yl)methyl)-3-oxoisoindolin-2-yl)methyl)benzo[d]oxazol-2(3H)-one]			A (A>3)	< 0.5 µM	0.5 to 5 µM		> 1.5
N#CCn1cc(Cl)c(CC2c3ccccc3C(=O)N2Cc2ccc3[nH]nnc3c2)n1 (stereo not shown) [Compound 410, 2-(3-((2-((1H-benzo[d][1,2,3]triazol-5-yl)methyl)-3-oxoisoindolin-1-yl)methyl)-4-chloro-1H-pyrazol-1-yl)acetonitrile]	0.5 to 5 µM	< 0.5 µM	B (3≥B>2)			> 1.5	
